According to the supplement of paper PMC10307832:

What was measured:
Test in all cases: relative viability (nuclei count vs DMSO), 5 days (fraction); higher = more cells survive
NCI-H23 = system: NCI-H23
Method in brief: (§1)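 Each reported value is a median over duplicate plates. It expresses relative viability: treated-well nuclei count divided by vehicle-well nuclei count. Lung cancer cell lines in 1536-well plates were dosed by pin tool a day after seeding, alone with one drug or with a fixed anchor-drug dose plus five library-drug doses (not always all listed) in √10 steps, and nuclei were counted after 5 days.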

LXF-289 = system: LXF-289
Method in brief: as §1

NCI-H2126 = system: NCI-H2126
Method in brief: as §1

NCI-H1666 = system: NCI-H1666
Method in brief: as §1

NCI-H2342 = system: NCI-H2342
Method in brief: as §1

LCLC-97TM1 = system: LCLC-97TM1
Method in brief: as §1

LU99A = system: LU99A
Method in brief: as §1

NCI-H2170 = system: NCI-H2170
Method in brief: as §1

NCI-H1395 = system: NCI-H1395
Method in brief: as §1

LOU-NH91 = system: LOU-NH91
Method in brief: as §1

SK-LU-1 = system: SK-LU-1
Method in brief: as §1

NCI-H441 = system: NCI-H441
Method in brief: as §1

NCI-H2023 = system: NCI-H2023
Method in brief: as §1

NCI-H1915 = system: NCI-H1915
Method in brief: as §1

BEN = system: BEN
Method in brief: as §1

NCI-H322M = system: NCI-H322M
Method in brief: as §1

NCI-H1793 = system: NCI-H1793
Method in brief: as §1

NCI-H460 = system: NCI-H460
Method in brief: as §1

PC-3 [JPC-3] = system: PC-3 [JPC-3]
Method in brief: as §1

HARA = system: HARA
Method in brief: as §1

A-427 = system: A-427
Method in brief: as §1

COCC1(CO)C(=O)C2CCN1CC2 (stereo not given) [PRIMA-1MET] + Nc1ncn([C@H]2C[C@H](O)[C@@H](CO)O2)c(=O)n1 [Decitabine] (partner 2 µM)
relative viability (NCI-H23; first compound 0.2 µM): 0.277
relative viability (NCI-H23; first compound 0.6325 µM): 0.221
relative viability (NCI-H23; first compound 2 µM): 0.282
relative viability (NCI-H23; first compound 6.325 µM): 0.293
relative viability (NCI-H23; first compound 20 µM): 0.162
relative viability (LXF-289; first compound 0.2 µM): 0.383
relative viability (LXF-289; first compound 0.6325 µM): 0.306
relative viability (LXF-289; first compound 2 µM): 0.349
relative viability (LXF-289; first compound 6.325 µM): 0.373
relative viability (LXF-289; first compound 20 µM): 0.372
relative viability (NCI-H2126; first compound 0.2 µM): 0.59
relative viability (NCI-H2126; first compound 0.6325 µM): 0.579
relative viability (NCI-H2126; first compound 2 µM): 0.544
relative viability (NCI-H2126; first compound 6.325 µM): 0.631
relative viability (NCI-H2126; first compound 20 µM): 0.619
relative viability (NCI-H1666; first compound 0.2 µM): 0.637
relative viability (NCI-H1666; first compound 0.6325 µM): 0.492
relative viability (NCI-H1666; first compound 2 µM): 0.645
relative viability (NCI-H1666; first compound 6.325 µM): 0.724
relative viability (NCI-H1666; first compound 20 µM): 0.756
relative viability (NCI-H2342; first compound 0.2 µM): 0.671
relative viability (NCI-H2342; first compound 0.6325 µM): 0.681
relative viability (NCI-H2342; first compound 6.325 µM): 0.658
relative viability (NCI-H2342; first compound 20 µM): 0.684
relative viability (LCLC-97TM1; first compound 0.2 µM): 0.286
relative viability (LCLC-97TM1; first compound 0.6325 µM): 0.163
relative viability (LCLC-97TM1; first compound 2 µM): 0.209
relative viability (LCLC-97TM1; first compound 6.325 µM): 0.153
relative viability (LCLC-97TM1; first compound 20 µM): 0.246
relative viability (LU99A; first compound 0.2 µM): 0.776
relative viability (LU99A; first compound 0.6325 µM): 0.722
relative viability (LU99A; first compound 2 µM): 0.888
relative viability (LU99A; first compound 6.325 µM): 0.674
relative viability (LU99A; first compound 20 µM): 0.51
relative viability (NCI-H2170; first compound 0.2 µM): 0.42
relative viability (NCI-H2170; first compound 0.6325 µM): 0.324
relative viability (NCI-H2170; first compound 2 µM): 0.43
relative viability (NCI-H2170; first compound 6.325 µM): 0.457
relative viability (NCI-H2170; first compound 20 µM): 0.457
relative viability (NCI-H1395; first compound 0.2 µM): 0.712
relative viability (NCI-H1395; first compound 2 µM): 0.708
relative viability (NCI-H1395; first compound 6.325 µM): 0.838
relative viability (NCI-H1395; first compound 20 µM): 0.67
relative viability (LOU-NH91; first compound 0.2 µM): 0.89
relative viability (LOU-NH91; first compound 0.6325 µM): 0.794
relative viability (LOU-NH91; first compound 2 µM): 0.806
relative viability (LOU-NH91; first compound 6.325 µM): 0.828
relative viability (LOU-NH91; first compound 20 µM): 0.613
relative viability (SK-LU-1; first compound 0.2 µM): 0.523
relative viability (SK-LU-1; first compound 0.6325 µM): 0.513
relative viability (SK-LU-1; first compound 2 µM): 0.503
relative viability (SK-LU-1; first compound 6.325 µM): 0.707
relative viability (SK-LU-1; first compound 20 µM): 0.593
relative viability (NCI-H441; first compound 0.2 µM): 0.232
relative viability (NCI-H441; first compound 0.6325 µM): 0.21
relative viability (NCI-H441; first compound 2 µM): 0.22
relative viability (NCI-H441; first compound 6.325 µM): 0.23
relative viability (NCI-H441; first compound 20 µM): 0.169
relative viability (NCI-H2023; first compound 0.2 µM): 0.211
relative viability (NCI-H2023; first compound 0.6325 µM): 0.128
relative viability (NCI-H2023; first compound 2 µM): 0.235
relative viability (NCI-H2023; first compound 6.325 µM): 0.216
relative viability (NCI-H2023; first compound 20 µM): 0.209
relative viability (NCI-H1915; first compound 0.2 µM): 0.278
relative viability (NCI-H1915; first compound 0.6325 µM): 0.234
relative viability (NCI-H1915; first compound 2 µM): 0.252
relative viability (NCI-H1915; first compound 6.325 µM): 0.256
relative viability (NCI-H1915; first compound 20 µM): 0.27
relative viability (BEN; first compound 0.2 µM): 0.747
relative viability (BEN; first compound 0.6325 µM): 0.473
relative viability (BEN; first compound 6.325 µM): 0.652
relative viability (BEN; first compound 20 µM): 0.632
relative viability (NCI-H322M; first compound 0.2 µM): 0.725
relative viability (NCI-H322M; first compound 0.6325 µM): 0.696
relative viability (NCI-H322M; first compound 6.325 µM): 0.714
relative viability (NCI-H322M; first compound 20 µM): 0.6
relative viability (NCI-H1793; first compound 0.2 µM): 0.484
relative viability (NCI-H1793; first compound 0.6325 µM): 0.333
relative viability (NCI-H1793; first compound 6.325 µM): 0.489
relative viability (NCI-H1793; first compound 20 µM): 0.424
relative viability (NCI-H460; first compound 0.2 µM): 0.595
relative viability (NCI-H460; first compound 0.6325 µM): 0.136
relative viability (NCI-H460; first compound 2 µM): 0.455
relative viability (NCI-H460; first compound 6.325 µM): 0.513
relative viability (NCI-H460; first compound 20 µM): 0.0203
relative viability (PC-3 [JPC-3]; first compound 0.2 µM): 0.822
relative viability (PC-3 [JPC-3]; first compound 0.6325 µM): 0.712
relative viability (PC-3 [JPC-3]; first compound 2 µM): 0.841
relative viability (PC-3 [JPC-3]; first compound 6.325 µM): 0.84
relative viability (PC-3 [JPC-3]; first compound 20 µM): 0.802
relative viability (HARA; first compound 0.2 µM): 0.478
relative viability (HARA; first compound 0.6325 µM): 0.354
relative viability (HARA; first compound 2 µM): 0.622
relative viability (HARA; first compound 6.325 µM): 0.607
relative viability (HARA; first compound 20 µM): 0.607
relative viability (A-427; first compound 0.2 µM): 0.648
relative viability (A-427; first compound 0.6325 µM): 0.532
relative viability (A-427; first compound 2 µM): 0.621
relative viability (A-427; first compound 6.325 µM): 0.568
relative viability (A-427; first compound 20 µM): 0.501
